Experimental data reported in patent US12168008B2, “Oxabicycloheptanes for modulation of immune response” (LIXTE BIOTECHNOLOGY, INC., priority 2016, dated 2024).

Tests used:
[1] = clinical; type: in vivo, human; conditions: in vivo; for half-life: 2.33 mg/m2, T1/2
Method: The main objective was to determine the safety, tolerability, and maximum tolerated dose of LB-100 given intravenously daily for three consecutive days every 3 weeks. The secondary objectives were to document any evidence of potential anti-tumor activity and obtain pharmacokinetic data on LB-100 and a metabolite, endothall, in patients receiving LB-100 at the MTD (Quang et al., 2016).
The plasma concentrations of LB-100 and endothall were measured (Quang et al., 2016) prior to and over 4 hours after completion of the 2-hour infusion at the MTD of 2.33 mg/m2 of LB-100 on day 1 in one patient and on day 1 and 3 in two patients. […] Plasma concentrations of endothall were low throughout the infusion, being below the lower limit of detection (5 ng/mL) in one patient.

[2] = tested on: PP2A; test: PP2A phosphatase assay in activated T cells; type: cell-based, mouse; conditions: 3 hours after stimulation with CD3 and CD28; greater effect in CD8
Method: LB-100 inhibits PP2A activity and enhances mTORC1 activation: PP2A enzymatic activity of isolated CD4 and CD8 cells from mice splenocytes were measured 3 hours after in vitro stimulation with plated CD3 and soluble CD28.
PP2A phosphatase assay—Mouse CD4+ and CD8+ T cells were isolated with CD4 and CD8 isolation kit (StemCell) respectively. Cells were activated using immobilized anti-CD3 (10 ug/ml) and soluble anti-CD28 (2 ug/ml) for three hour. PP2A activity was then evaluated after immunoprecipitation using a malachite green phosphatase assay kit as per the manufacturer's instructions (EMD Millipore).

[3] = tested on: CD4+ T cells; test: Human mixed lymphocyte reaction (Example 13); type: cell-based
Method: FIG. 39A. DCs were induced from purified monocytes by culturing in IL4 and GM-CSF for 7 days. 10^5 purified CFSE labelled CD4+ T cells were then co-cultured with 10^4 allogenic DCs in the presence of a titration of LB-100 in duplicates or triplicates for 5 days. LB-100 was replenished on day 3. Supernatants were collected on day 5 and measured for IFN-γ production. FACS analysis was performed on the cultured cells.
In vitro activity of LB-100 in human mixed lymphocytes reactions: To further confirm the immune-modulating effect of LB-100 has clinical utility, mixed lymphocyte reactions (MLRs) were performed using PBMC from healthy human donors. Monocyte derived dendritic cells were co-cultured with allogenic CD4+ T cells labelled with cytosolic dye CFSE. LB-100 was given on the day of co-culture (Day 0) and again on Day 3. Proliferation and IFN-γ secretion by CD4 T cells were assessed on Day 5 (FIG. 39A). There was a significant increase in CD4 T cell proliferation, as measured by the percentage of dividing cells, with LB-100 treatment at 1 μM (31% compared to 20% in controls) (FIG. 39B). There was also a trend towards increased proliferation at lower LB100 concentrations (in the sub-micromolar range). […] Also examined was the effect of lineage differentiation in CD4 T cells by labeling for T-bet. […] Next tested whether LB-100 could enhance IFN-γ secretion in vitro in combination with PD1 blockade using Nivolumab. A similar MLR assay was performed with LB-100.
Human mixed lymphocyte reaction—as previously described in 39. Dendritic cells (DCs) were generated by culturing monocytes isolated from PBMC using a monocyte isolation kit (StemCell) in vitro for 7 days with 500U/ml interleukin-4 (IL-4) and 250 U/ml GM-CSF (R&D Systems). CD4+ T cells (1×10^5) isolated with CD4 isolation kit (StemCell) and labeled with CFSE (ThermoFisher) were co-cultured with allogeneic DCs (1×10^4). At the initiation of assay, a titration of LB-100 and/or Nivolumab was added. After 3 days, LB-100 was replenished to the final indicated concentration. After 5 days, culture supernatants were analyzed by ELISA (eBioscience) and cells were analyzed by flow cytometry. At least 3 separate donors were obtained and results of one representative donor were reported.

[4] = tested on: Naïve CD4 cells; test: T cell stimulation and skewing of naive CD4 cells; type: cell-based, mouse
Method: Naïve CD4 cells were isolated from mice splenocytes and activated in vitro with anti-CD3 and CD28 in the presence of TGF-β or IL4 to induce development of Treg or Th2 CD4+ cells respectively. After 72 hours, intranuclear expressions of Foxp3 or GATA3 were quantitated by flow cytometry to determine percentage of Treg or Th2 cells respectively. […] In addition, the relative proportion of Th2 and Th1 CD4+ cells was quantified by labeling for T-bet. […] Next, the functional consequence of Th1 CD4+ cell with LB-100 treatment was explored. […] This was shown with both intracellular staining (FIG. 38D) and measurement of cytokine secretion (FIG. 38E-F).
T cell stimulation and skewing—Naïve CD4 cells were isolated from mice splenocytes (StemCell). Cells were activated for 3 days using immobilized anti-CD3 (10 ug/ml) and soluble anti-CD28 (2 ug/ml). Skewing conditions were as follows: TH1, 1 .ig/mL anti-IL4, 5 ng/mL IL2, and 10 ng/mL IL12; TH2, 1 .ig/mL anti-IFN-7, 5 ng/mL IL2, and 10 ng/mL IL4; Treg, 1 .ig/mL anti-IFNγ, and 1 ig/mL anti-IL4, and 2 ng/mL TGFβ1. Bead-based multianalyte flow immunoassays (BD Bioscience) were used to measure cytokine production in the supernatant per manufacturer's instruction. Absolute cell numbers were quantified with flow cytometry using counting beads (Biolegend).

SMILES: CN1CCN(C(=O)C2C(C(=O)O)[C@H]3CC[C@@H]2O3)CC1 (stereo partly shown) [LB-100]
- half-life ([1]; female, human): 1.35 h
- pharmacokinetics of LB-100, in words [1]: low clearance, low volume of distribution, and a short half-life
- T1/2 ([1]; male, human, 2.33 mg/m2): 0.95 h
- half-life ([1]; male, human): 1.1 h
- PP2A enzymatic activity in CD4 and CD8 cells [2]: dose dependent decrease
- enhancement of IFN-γ release ([3]; 0.2 μM): 3.5 fold
- T-bet expression in CD4 T cells ([3]; 1 μM): significantly increased
- enhancement of IFN-γ release ([3]; 1 μM): 4 fold
- CD4 T cell proliferation, percentage of dividing cells ([3]; 1 μM, day 5, controls 20%): 31%
- CD4 T cell proliferation ([3]; 5 μM): impaired
- frequency of GATA3 expressing cells relative to Tbet expressing cells [4]: decreased significantly
- induction of Foxp3 by TGF-β ([4]; 72 hours, dose dependent): significantly impaired
- induction of GATA3 by IL-4 ([4]; 72 hours, dose dependent): significantly impaired
- TNF-α and IL2 secretion ([4]; Th1 and Th2 conditions): increased
- IFN-γ expression ([4]; Th1 and Th2 skewing conditions): dose dependent increase
- Secretion of IL4 ([4]; Th2 conditions): decreased
